From ChEMBL document CHEMBL5150042, “Phenolic furanochromene hydrazone derivatives: Synthesis, antioxidant activity, ferroptosis inhibition, DNA cleavage and DNA molecular docking studies” (Bioorg Med Chem, 2022)
Activity calls are given as the source filed them. The calls are words filed in the database; no cut-off is given here.

Tests used:
[1] = Antioxidant activity assessed as DPPH radical scavenging activity incubated for 30 mins under dark condition by microplate reader based assay; assay type: functional
[2] = test system: HaCaT; assay: Anti-ferroptotic activity against erastin-induced ferroptosis in human HaCaT cells assessed as cell viability at 5 uM pretreated with compound for 4 hrs followed by erastin challenge for 24 hrs by MTT assay (reference value: 45%); assay type: functional; details: time 28 hrs, read-out: Activity
[3] = Antioxidant activity assessed as trolox equivalent of Cu2+ reducing activity incubated for 30 mins by CUPRAC assay relative to trolox; assay type: functional
[4] = test system: DNA; assay: Induction of copper-mediated Escherichia coli supercoiled pBR322 DNA cleavage assessed as increase in open circular form of DNA with small amount of linear form at 1 mM incubated for 24 hrs in presence of Cu2+ ion by agarose gel electrophoresis analysis; assay type: nucleic-acid assay
[5] = test system: DNA; assay: Induction of copper-mediated Escherichia coli supercoiled pBR322 DNA cleavage assessed as increase in open circular form and linear form of DNA at 100 uM incubated for 24 hrs in presence of Cu2+ ion by agarose gel electrophoresis analysis; assay type: nucleic-acid assay
[6] = test system: DNA; assay: Induction of copper-mediated Escherichia coli supercoiled pBR322 DNA cleavage assessed as increase in open circular form of DNA at 1 mM incubated for 24 hrs in presence of Cu2+ ion by agarose gel electrophoresis analysis; assay type: nucleic-acid assay
[7] = test system: DNA; assay: Induction of copper-mediated Escherichia coli supercoiled pBR322 DNA cleavage assessed as increase in cleaved DNA with significant amount of supercoiled form at 1 mM incubated for 24 hrs in presence of Cu2+ ion by agarose gel electrophoresis analysis; assay type: nucleic-acid assay
[8] = test system: DNA; assay: Induction of copper-mediated Escherichia coli supercoiled pBR322 DNA cleavage at 100 uM incubated for 24 hrs in presence of Cu2+ ion by agarose gel electrophoresis analysis; assay type: nucleic-acid assay
[9] = test system: DNA; assay: Induction of Escherichia coli supercoiled pBR322 DNA cleavage incubated for 90 mins in presence of Cu2+ ion by agarose gel electrophoresis analysis; assay type: nucleic-acid assay; details: dose 3.9-500 µM, DDE = dose-dependent effect
[10] = test system: DNA; assay: Induction of copper-mediated Escherichia coli supercoiled pBR322 DNA cleavage assessed as cleavage of DNA into smaller fragments at 1 mM incubated for 24 hrs in presence of Cu2+ ion by agarose gel electrophoresis analysis; assay type: nucleic-acid assay

Row | Compound | IC50 ([1]; read-out: IC50) | Activity [4] | Activity [5] | Activity [6] | Activity [7] | Activity [8] | Activity [9] | Activity [10] | IC50 [1] | viability at 5 µM [2] | Ratio [3]
1 | COc1ccc(O)c(/C=N/NC(=O)c2cc3ccc4c(c3o2)C=CC(C)(C)O4)c1 | > 100 µM | Active | – | – | – | – | – | – | – | 44% | 1.22
2 | Cc1ccc(O)c(/C=N/NC(=O)c2cc3ccc4c(c3o2)C=CC(C)(C)O4)c1 | > 100 µM | Active | – | – | – | – | – | – | – | 62% | 0.95
3 | CC1(C)C=Cc2c(ccc3cc(C(=O)N/N=C/c4ccc(O)cc4)oc23)O1 | > 100 µM | – | – | Active | – | Active | – | – | – | – | 0.79
4 | CC1(C)C=Cc2c(ccc3cc(C(=O)N/N=C/c4ccccc4O)oc23)O1 | – | – | – | Active | – | – | – | – | – | 62% | 0.48
5 | COc1cc(/C=N/NC(=O)c2cc3ccc4c(c3o2)C=CC(C)(C)O4)cc(I)c1O | > 100 µM | Active | – | – | – | Active | – | – | – | 59% | 0.99
6 | COc1cc(/C=N/NC(=O)c2cc3ccc4c(c3o2)C=CC(C)(C)O4)cc(Br)c1O | > 100 µM | Active | – | – | – | Active | – | – | – | 59% | 1.09
7 | COc1cc(O)c(/C=N/NC(=O)c2cc3ccc4c(c3o2)C=CC(C)(C)O4)c(OC)c1 | > 100 µM | Active | – | – | – | – | – | – | – | 41% | 0.97
8 | O=c1c(O)c(-c2ccc(O)c(O)c2)oc2cc(O)ccc12 [FISETIN] | – | – | – | – | – | – | – | – | – | 70% | –
9 | COc1cccc(/C=N/NC(=O)c2cc3ccc4c(c3o2)C=CC(C)(C)O4)c1O | > 100 µM | Active | – | – | – | – | – | – | – | 44% | 0.85
10 | CC1(C)C=Cc2c(ccc3cc(C(=O)N/N=C/c4cc(O)cc(O)c4)oc23)O1 | > 100 µM | – | – | Active | – | Active | – | – | – | – | 1.27
11 | COc1cc(/C=N/NC(=O)c2cc3ccc4c(c3o2)C=CC(C)(C)O4)cc(OC)c1O | – | Active | – | – | – | Active | – | – | Nd(Insoluble) | 57% | 2.22
12 | COc1ccc(/C=N/NC(=O)c2cc3ccc4c(c3o2)C=CC(C)(C)O4)cc1O | > 100 µM | Active | – | – | – | Active | – | – | – | 44% | 1.36
13 | CC1(C)C=Cc2c(ccc3cc(C(=O)N/N=C/c4cccc(O)c4)oc23)O1 | – | – | – | Active | – | Active | – | – | – | – | –
14 | COc1cc(/C=N/NC(=O)c2cc3ccc4c(c3o2)C=CC(C)(C)O4)cc([N+](=O)[O-])c1O | > 100 µM | Active | – | – | – | Active | – | – | – | 59% | 1.52

Further molecules by falling IC50 ([1]; read-out: IC50), results first:

Row | IC50 ([1]; read-out: IC50) | Activity [4] | Activity [5] | Activity [6] | Activity [7] | Activity [8] | Activity [9] | Activity [10] | IC50 [1] | Compound | viability at 5 µM [2] | Ratio [3]
15 | 87.8 µM | Active | – | – | – | Active | – | – | – | COc1cc(/C=N/NC(=O)c2cc3ccc4c(c3o2)C=CC(C)(C)O4)ccc1O | 44% | 1.75
16 | 81 µM | – | – | – | Active | – | – | – | – | CC1(C)C=Cc2c(ccc3cc(C(=O)N/N=C/c4c(O)cc(O)cc4O)oc23)O1 | 56% | 1.36
17 | 70.1 µM | – | – | – | – | – | – | – | – | CC1(C)C=Cc2c(ccc3cc(C(=O)N/N=C/c4ccc(O)cc4O)oc23)O1 | – | 1.42
18 | 67.4 µM | Active | – | – | – | – | – | – | – | COc1ccc(/C=N/NC(=O)c2cc3ccc4c(c3o2)C=CC(C)(C)O4)c(O)c1 | > 50% | 1.01
19 | 61.2 µM | Active | – | – | – | Active | – | – | – | Cc1cc(/C=N/NC(=O)c2cc3ccc4c(c3o2)C=CC(C)(C)O4)cc(C)c1O | 50% | 1.11
20 | 51.2 µM | – | – | – | – | – | – | – | – | O=C1O[C@H]([C@@H](O)CO)C(O)=C1O [ASCORBIC ACID] | – | 0.72
21 | 27.9 µM | – | – | – | Active | – | – | – | – | CC1(C)C=Cc2c(ccc3cc(C(=O)N/N=C/c4cc(O)c(O)c(O)c4)oc23)O1 | 56% | 2.59
22 | 24.3 µM | – | – | – | – | – | – | Active | – | CC1(C)C=Cc2c(ccc3cc(C(=O)N/N=C/c4cc(O)c(O)cc4O)oc23)O1 | 56% | 2.43
23 | 10.1 µM | – | Active | Active | – | – | – | – | – | CC1(C)C=Cc2c(ccc3cc(C(=O)N/N=C/c4ccc(O)c(O)c4O)oc23)O1 | 70% | 2.89
24 | 9.1 µM | – | – | Active | – | – | – | – | – | CC1(C)C=Cc2c(ccc3cc(C(=O)N/N=C/c4cc(O)ccc4O)oc23)O1 | 69% | 1.8
25 | 6.04 µM | – | – | – | Active | – | – | – | – | CC1(C)C=Cc2c(ccc3cc(C(=O)N/N=C/c4cccc(O)c4O)oc23)O1 | – | 1.75
26 | 5.92 µM | – | Active | – | – | – | Dde | Active | – | CC1(C)C=Cc2c(ccc3cc(C(=O)N/N=C/c4ccc(O)c(O)c4)oc23)O1 | 60% | 3.97
